Experimental data from patent US11242337B2, “Compounds useful for treating gastrointestinal tract disorders” (Ardelyx, Inc., priority 2017, dated 2022).
Where a name gives a salt, the structure may show the parent alone.

Legend:
NHE3 [1] = biological target: T1, NHE3 (Homo sapiens, UniProt P48764); test: Cell-based assay of NHE-3 activity (persistent inhibition), human; conditions: human Persistence, 60 min incubation then washout
T1 construct: expressed in transfected cells
T1 sequence (P48764 26-834): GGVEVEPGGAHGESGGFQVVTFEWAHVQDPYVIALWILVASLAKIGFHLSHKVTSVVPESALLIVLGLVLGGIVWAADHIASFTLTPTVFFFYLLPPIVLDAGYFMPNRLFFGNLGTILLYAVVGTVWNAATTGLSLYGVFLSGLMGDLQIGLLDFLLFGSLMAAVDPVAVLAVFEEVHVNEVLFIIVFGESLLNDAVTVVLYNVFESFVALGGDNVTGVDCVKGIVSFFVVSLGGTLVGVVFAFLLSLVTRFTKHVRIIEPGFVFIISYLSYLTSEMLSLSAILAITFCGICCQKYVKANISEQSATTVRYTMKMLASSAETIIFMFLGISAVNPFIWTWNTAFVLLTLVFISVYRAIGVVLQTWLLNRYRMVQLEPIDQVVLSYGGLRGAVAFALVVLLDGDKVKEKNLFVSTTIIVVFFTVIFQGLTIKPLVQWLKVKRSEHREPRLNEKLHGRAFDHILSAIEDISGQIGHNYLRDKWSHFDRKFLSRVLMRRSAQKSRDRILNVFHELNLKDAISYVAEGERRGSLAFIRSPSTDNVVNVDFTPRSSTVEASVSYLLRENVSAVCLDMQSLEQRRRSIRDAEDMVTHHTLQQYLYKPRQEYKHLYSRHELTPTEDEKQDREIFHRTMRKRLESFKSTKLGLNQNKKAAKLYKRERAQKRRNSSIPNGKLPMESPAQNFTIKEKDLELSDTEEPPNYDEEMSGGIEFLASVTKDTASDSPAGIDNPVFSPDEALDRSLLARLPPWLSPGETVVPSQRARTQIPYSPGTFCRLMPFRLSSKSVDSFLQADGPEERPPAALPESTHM
T1 sequence (Q99653 2-195 partner limits assumed): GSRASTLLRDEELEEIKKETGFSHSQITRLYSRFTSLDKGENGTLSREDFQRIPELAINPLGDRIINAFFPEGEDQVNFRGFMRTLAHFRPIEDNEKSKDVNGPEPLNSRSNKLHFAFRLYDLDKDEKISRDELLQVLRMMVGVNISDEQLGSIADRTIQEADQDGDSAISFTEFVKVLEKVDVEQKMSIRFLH
Description: The ability of compounds to inhibit human and rat NHE-3-mediated Na^+ dependent H^+ antiport after application and washout was measured using a modification of the pH sensitive dye method described above. PS120 fibroblasts stably expressing human NHE3 and NHERF2 were obtained from Mark Donowitz (Baltimore, Md.). Opossum kidney (OK) cells were obtained from the ATCC and propagated per their instructions. The rat NHE-3 gene was introduced into OK cells via electroporation, and cells were seeded into 96 well plates and grown overnight. Medium was aspirated from the wells, cells were washed once with NaCl-HEPES buffer (100 mM NaCl, 50 mM HEPES, 10 mM glucose, 5 mM KCl, 2 mM CaCl2, 1 mM MgCl2, pH 7.4), then overlayed with NaCl-HEPES buffer containing 0-30 μM test compound. After a 60 min incubation at room temperature, the test drug containing buffer was aspirated from the cells. Following aspiration, cells were washed once with NaCl-HEPES buffer without drug, then incubated for 30 min at 37° C. with NH4Cl-HEPES buffer (20 mM NH4Cl, 80 mM NaCl, 50 mM HEPES, 5 mM KCl, 2 mM CaCl2, 1 mM MgCl2, pH 7.4) containing 5 μM BCECF-AM. Cells were washed once with Ammonium free, Na^+-free HEPES (100 mM choline, 50 mM HEPES, 10 mM glucose, 5 mM KCl, 2 mM CaCl2, 1 mM MgCl2, pH 7.4) and incubated in the same buffer for 10 minutes at room temperature to lower intracellular pH. NHE-3-mediated recovery of neutral intracellular pH was initiated (10 min after compound washout) by addition of Na-HEPES buffer. […] Changes in intracellular pH were monitored using a FLIPR Tetra® (Molecular Devices, Sunnyvale, Calif.) by excitation at λex 439 to 505 nm, and measuring BCECF fluorescence at λem 538 nm. The initial rate of the fluorescence ratio change was used as a measure of NHE-mediated Na^+/H^+ activity, and reported as the change in fluorescence ratio per minute.

NHE3 [2] = biological target: T1, NHE3; test: Cell-based assay of NHE-3 activity (pre-incubation inhibition), human; conditions: human Preincubation; for pIC50: 0-30 μM test compound
Description: Rat and human NHE-3-mediated Na^+-dependent H^+ antiport was measured using a modification of the pH sensitive dye method originally reported by Paradiso (Proc. Natl. Acad. Sci. USA. (1984) 81(23): 7436-7440). PS120 fibroblasts stably expressing human NHE3 and NHERF2 were obtained from Mark Donowitz (Baltimore, Md.). Opossum kidney (OK) cells were obtained from the ATCC and propagated per their instructions. The rat NHE-3 gene (GenBank M85300) was introduced into OK cells via electroporation, and cells were seeded into 96 well plates and grown overnight. Medium was aspirated from the wells then incubated for 30 min at 37° C. with NH4Cl-HEPES buffer (20 mM NH4Cl, 80 mM NaCl, 50 mM HEPES, 5 mM KCl, 2 mM CaCl2, 1 mM MgCl2, pH 7.4) containing 5 μM BCECF-AM. Cells were washed once with Ammonium free, Na^+-free HEPES (100 mM choline, 50 mM HEPES, 10 mM glucose, 5 mM KCl, 2 mM CaCl2, 1 mM MgCl2, pH 7.4) and incubated in the same buffer for 10 minutes at room temperature to lower intracellular pH with 0-30 μM test compound. […] Changes in intracellular pH were monitored using a FLIPR Tetra® (Molecular Devices, Sunnyvale, Calif.) by excitation at λex 439 to 505 nm, and measuring BCECF fluorescence at λem 538 nm. The initial rate of the fluorescence ratio change was used as a measure of NHE-mediated Na^+/H^+ activity, and reported as the change in fluorescence ratio per minute.

| SMILES | % inhibition (NHE3 [1]) | IC50 (NHE3 [1]) [nM] | % inhibition (NHE3 [2]) | pIC50 (NHE3 [1]) | pIC50 (NHE3 [2]) |
| --- | --- | --- | --- | --- | --- |
| Cc1cc(S(=O)(=O)NCCOCCOCCNC(=O)NCCCCNC(=O)NCCOCCOCCNS(=O)(=O)c2cc(C)c(O[C@H]3c4cc(Cl)cc(Cl)c4C[C@@H]3N3CCC[C@@H](N)C3)c(C)c2)cc(C)c1O[C@H]1c2cc(Cl)cc(Cl)c2C[C@@H]1N1CCC[C@@H](N)C1 [Example 79, 3-[2-(2-[2-[(4-[[(1S,2S)-2-[(3R)-3-Aminopiperidin-1-yl]-4,6-dichloro-2,3-dihydro-1H-inden-1-yl]oxy]-3,5-dimethylbenzene)sulfonamido]ethoxy]ethoxy)ethyl]-1-[4-([[2-(2-[2-[(4-[[(1S,2S)-2-[(3R)-3-aminopiperidin-1-yl]-4,6-dichloro-2,3-dihydro-1H-inden-1-yl]oxy]3,5-dimethylbenzene)sulfonamido]ethoxy]ethoxy)ethyl]carbamoyl]amino)butyl]urea; hydrochloride] | C (>70%) | 100 to 1000 | C (>70%) |  |  |
| Cc1cc(S(=O)(=O)NCCOCCOCCNC(=O)NCCCCNC(=O)NCCOCCOCCNS(=O)(=O)c2ccc(O[C@H]3c4cc(Cl)cc(C#N)c4C[C@@H]3N3CCC[C@@H](N)C3)c(C)c2)ccc1O[C@H]1c2cc(Cl)cc(C#N)c2C[C@@H]1N1CCC[C@@H](N)C1 [Example 8, 3-[2-(2-[2-[(4-[[(1S,2S)-2-[(3R)-3-Aminopiperidin-1-yl]-6-chloro-4-cyano-2,3-dihydro-1H-inden-1-yl]oxy]-3-methylbenzene)sulfonamido]ethoxy]ethoxy)ethyl]-1-[4-([[2-(2-[2-[(4-[[(1S,2S)-2-[(3R)-3-aminopiperidin-1-yl]-6-chloro-4-cyano-2,3-dihydro-1H-inden-1-yl]oxy]-3-methylbenzene)sulfonamido]ethoxy]ethoxy)ethyl]carbamoyl]amino)butyl]urea; bis(trifluoroacetic acid)] | A (NHE3 < 40%) |  | A (NHE3 < 40%) |  |  |
| Cc1cc(S(=O)(=O)N2CC[C@@H](COc3ccnc(CNC(=O)NCCCCNC(=O)NCc4cc(OC[C@@H]5CCN(S(=O)(=O)c6ccc(O[C@H]7c8cc(Cl)cc(C#N)c8C[C@@H]7N(C)C)c(C)c6)C5)ccn4)c3)C2)ccc1O[C@H]1c2cc(Cl)cc(C#N)c2C[C@@H]1N(C)C [Example 51, 3-[(4-[[(3R)-1-[(4-[[(1S,2S)-6-Chloro-4-cyano-2-(dimethylamino)-2,3-dihydro-1H-inden-1-yl]oxy]-3-methylbenzene)sulfonyl]pyrrolidin-3-yl]methoxy]pyridin-2-yl)methyl]-1-[4-([[(4-[[(3R)-1-[(4-[[(1S,2S)-6-chloro-4-cyano-2-(dimethylamino)-2,3-dihydro-1H-inden-1-yl]oxy]-3-methylbenzene)sulfonyl]pyrrolidin-3-yl]methoxy]pyridin-2-yl)methyl]carbamoyl]amino)butyl]urea] | B (40-70%) |  | B (40-70%) | C (NHE3 pIC50 > 7) | C (NHE3 pIC50 > 7) |
| O=C(NCCCCNC(=O)NCCOCCOCCNS(=O)(=O)c1ccc(O[C@H]2c3cc(Cl)cc(Cl)c3C[C@@H]2N2CC3CCC2CC3)cc1)NCCOCCOCCNS(=O)(=O)c1ccc(O[C@H]2c3cc(Cl)cc(Cl)c3C[C@@H]2N2CC3CCC2CC3)cc1 [Example 69, 1-[2-(2-[2-[(4-[[(1S,2S)-2-[2-Azabicyclo[2.2.2]octan-2-yl]-4,6-dichloro-2,3-dihydro-1H-inden-1-yl]oxy]benzene)sulfonamido]ethoxy]ethoxy)ethyl]-3-[4-([[2-(2-[2-[(4-[[(1S,2S)-2-[2-azabicyclo[2.2.2]octan-2-yl]-4,6-dichloro-2,3-dihydro-1H-inden-1-yl]oxy]benzene)sulfonamido]ethoxy]ethoxy)ethyl]carbamoyl]amino)butyl]urea] | C (>70%) | 100 to 1000 | C (>70%) |  | C (NHE3 pIC50 > 7) |
| N[C@@H]1CCCN([C@H]2Cc3c(Cl)cc(Cl)cc3[C@@H]2Oc2ccc(S(=O)(=O)NCCCCCCn3cc(CNC(=O)NCCCCNC(=O)NCc4cn(CCCCCCNS(=O)(=O)c5ccc(O[C@H]6c7cc(Cl)cc(Cl)c7C[C@@H]6N6CCC[C@@H](N)C6)cc5)nn4)nn3)cc2)C1 [Example 59, 3-[(1-[6-[(4-[[(1S,2S)-2-[(3R)-3-Aminopiperidin-1-yl]-4,6-dichloro-2,3-dihydro-1H-inden-1-yl]oxy]benzene)sulfonamido]-hexyl]-1H-1,2,3-triazol-4-yl)methyl]-1-[4-([[(1-[6-[(4-[[(1S,2S)-2-[(3R)-3-aminopiperidin-1-yl]-4,6-dichloro-2,3-dihydro-1H-inden-1-yl]oxy]benzene)sulfonamido]hexyl]-1H-1,2,3-triazol-4-yl)methyl]carbamoyl]amino)butyl]urea] | C (>70%) |  | C (>70%) |  |  |
| COc1cc(Cl)cc2c1C[C@H](N1CCC[C@@H](N)C1)[C@H]2Oc1ccc(S(=O)(=O)NCCOCCOCCNC(=O)NCCCCNC(=O)NCCOCCOCCNS(=O)(=O)c2ccc(O[C@H]3c4cc(Cl)cc(OC)c4C[C@@H]3N3CCC[C@@H](N)C3)cc2)cc1 [Example 5, 3-[2-(2-[2-[(4-[[(1S,2S)-2-[(3R)-3-Aminopiperidin-1 yl]-6-chloro-4-methoxy-2,3-dihydro-1H-inden-1-yl]oxy]benzene)sulfonamido]ethoxy]ethoxy)ethyl]-1-[4-[[(2-(2-[2-[(4-[[(1S,2S)-2-[(3R)-3-aminopiperidin-1-yl]-6-chloro-4-methoxy-2,3-dihydro-1H-inden-1-yl]oxy]benzene)sulfonamido]ethoxy]ethoxy)ethyl]carbamoyl]amino)butyl]urea; bis(trifluoroacetic acid)] | C (>70%) |  | B (40-70%) |  |  |
